In this experiment the test system is db/db mice. The experiment in a line: db/db mouse model experiment (leptin receptor-deficient genetic obesity model, 45 kcal % high-fat diet). It counts as in vivo. The procedure: To confirm anti-obesity efficacy, N-((3S,5S)-1-((3S,4R)-1-(tert-butyl)-4-(4-chlorophenyl)pyrrolidine-3-carbonyl)-5- (morpholine-4 -carbonyl)pyrrolidin-3-yl)-N-((1s ,4R)-4-methylcyclohexyl)isobutyramide hydrochloride (hereinafter referred to as “Test Compound”) obtained in the Preparation Example was administered repeatedly for 4 weeks while feeding 45 kcal % high-fat diet (diet with 45 kcal % fat) to db/db mice which is a genetic obesity mouse model in which a mutation in the leptin receptor associated with the MC4R pathway occurred. The weight gain inhibitory effect was confirmed by measuring the body weight during the administration period, and the body fat mass reduction effect was confirmed by measuring the total body fat mass after repeated administration for 4 weeks. […] The results are represented in FIG. 1.

Setting [1] is: body fat analysis after repeated administration for 4 weeks, compared to the negative control group.
Where [2] appears, read: db/db mice on 45 kcal % high-fat diet, repeated administration for 4 weeks, compared to the negative control group.

In the case of `CC(C)C(=O)N([C@H]1C[C@@H](C(=O)N2CCOCC2)N(C(=O)[C@@H]2CN(C(C)(C)C)C[C@H]2c2ccc(Cl)cc2)C1)[C@H]1CC[C@@H](C)CC1.Cl` [Test Compound, N-((3S,5S)-1-((3S,4R)-1-(tert-butyl)-4-(4-chlorophenyl)pyrrolidine-3-carbonyl)-5-(morpholine-4-carbonyl)pyrrolidin-3-yl)-N-((1s ,4R)-4-methylcyclohexyl)isobutyramide hydrochloride], under setting [1], the fat mass result is on record as “significantly decreased” and the fat-free mass entry was “no difference”. Also, under setting [2], the body weight entry is given as “significantly reduced” and the weight gain rate entry is “significantly decreased”. Besides, where the note is “leptin receptor-deficient mouse model (db/db), FIG. 1”, the weight loss effect result was “significant weight loss effect”.

The record behind these values is patent US20240148743A1, “USES OF MELANOCORTIN-4 RECEPTOR AGONIST” (LG CHEM, LTD., priority 2021, published 2024).
